Assay results: patent US20220074923A1, “METHODS OF IDENTIFYING PARKIN-MEDIATED MITOPHAGY ACTIVATING AGENTS” (THE GOVERNING COUNCIL OF THE UNIVERSITY OF TORONTO, priority 2018, published 2022)

Assays:
Canton(S) flies = format: in vivo, Drosophila
Protocol: Fresh vials containing standard fly food supplemented with the indicated treatments were changed out every 2 days. The number of flies surviving each day was counted and log-rank tests were performed to determine statistical significance. […] The number of flies to climb beyond 9.5 cm every 10 seconds was assessed. The percentage of flies in each treatment to cross this line was determined. The climbing ability of each treatment was normalized to the control group treated with water only. […] Log-rank tests were performed to determine p-values for survival analyses (a, b, g), *P<0.05. P-values were determined by one-tailed paired student's t-test for all climbing assays (c-e, h), *P<0.05. Data is expressed as mean±s.e.m. All error bars represent s.e.m
Drosophila aged 7 days are fed food supplemented with either water (control), 1 mM SR3677, 10 mM paraquat or SR3677 in combination with paraquat. The survival of flies was recorded each day following administration of the treatments and climbing abilities were tested every 2 days by performing negative geotaxis assays.
Male Canton(S) Drosophila were aged 7 days prior to feeding with standard fly food supplemented with water, 10 mM paraquat, 1 mM SR3677, or with combinations of these chemicals. Flies were placed into new vials containing fresh food supplemented with the treatments previously administered and 2 days later, climbing assays were performed. Flies were placed into plastic cylinder vials and tapped down, so all flies fell to the bottom. The number of flies to climb beyond 12.5 cm was counted every 10 s and values are represented as the percentage of total flies in each treatment group.

[1] = in vivo; cited from earlier work
TH-GAL4>UAS-mitoQC flies = assay: In vivo mitoQC assay in dopaminergic neurons; parameters: species or system Drosophila; details: SR3677 with sublethal paraquat dose (1 mM), 7 days, vs water
Protocol: Cells were treated with 50 μM chloroquine for 16 hours prior to addition of E64, leupeptin, SR3677 and CCCP in the indicated treatment group. For the in vivo mitoQC assays, 5 7-day old male TH-GAL4>UAS-mitoQC were placed into vials containing water (control), sublethal 1 mM paraquat, 1 mM SR3677 alone and in combination with paraquat for 7 days. Whole flies were then fixed overnight in 1% PFA and 0.1% Tx-100. Fly brains were then dissected and fixed with 4% PFA for 20 minutes. 3 10-minute PBS washes were performed in between each step. Fly brains were mounted in VectaShield™ mounting medium for imaging using the Zeiss LSM700 confocal fluorescence microscope with 40× 1.4 NA Oil Plan-APOCRAMAT objective and the appropriate lasers and filter. 0.8 μm z-stacks were acquired to capture dopaminergic neurons expressing the mitoQC transgene. Laser settings were kept constant within each trial. At least 2 fly brains were imaged for each treatment across 4 independent trials.
The mitoQC assay may also be performed in Drosophila to quantify mitophagy specifically in cell types of interest using the GAL4/UAS system. Briefly, the mitoQC transgene was expressed in dopaminergic neurons using the TH-GAL4 driver^41. Since CCCP cannot be administered without affecting the viability of the flies, 7-day old flies were fed the parkinsonian toxin, paraquat. […]

SH-SY5Y cells = assay: Cell viability by crystal violet staining; format: cell-based; details: 0.5 μM pre-treatment, 10 μM CCCP 24 hours
Protocol: A) SH-SY5Y cells were pre-treated with either DMSO or 0.5 μM SR3677 prior to addition of either DMSO or 10 μM CCCP for 24 hours. Following treatment, cells were washed, fixed with 4% paraformaldehyde and stained with crystal violet dye. B) The OD at 550 nm was measured to assess crystal violet staining.
To determine whether these findings could be translated into dopaminergic neurons, the study was continued in the dopaminergic neuroblastoma SH-SY5Y cell line. Parkin undergoes a similar CCCP-dependent subcellular transition from cytosol to mitochondria in these cells^12. First, whether the viability of these cells would be improved by SR3677 was investigated. Initially, experiments were conducted using crystal violet staining as an indicator of cell viability. […] Next, SH-SY5Y cells were differentiated into a more neuron-like population according to protocols previously described^10 and ATP levels were measured. […] Varying concentrations of SR3677 were co-administered alongside the PD-causing toxin paraquat.

HeLa cells = assay: HK2 distribution after mitochondrial damage; format: cell-based; details: HeLa cells which lack endogenous Parkin
From the text: Since HK2 is also a Parkin substrate, HeLa cells which lack endogenous Parkin were used to examine the effect of SR3677 treatment on HK2 distribution^43.

[2] = system: heteroplasmic mt:Col^T300l flies; assay: Survival and climbing of heteroplasmic mt:CoI T300I flies; format: in vivo, Drosophila
Protocol: Finally, SR3677 in an alternate, genetic model of mitochondrial dysfunction was tested. Specifically, flies with a temperature-sensitive, de-stabilizing mutation in cytochrome c oxidase subunit I (mt:Col^T300l) were used. This mutation causes depolarization of the mitochondrial membrane potential and increased mitochondrial reactive oxygen species^44, manifesting in systemic consequences such as impaired climbing and survival. Flies with this mutation in 100% of their mitochondrial genomes, or homoplasmic flies, only survive 4 days post-eclosion. In order to extend our therapeutic window, SR3677 in heteroplasmic flies which contain this temperature-sensitive mutation in approximately 90% of their mtDNA instead^47 was tested. These flies retain the same phenotypes as homoplasmic flies, including reduced survival and climbing ability although to a less severe extent (FIG. 7).
Immediately following eclosion, male heteroplasmic mt:Col^T300l flies were transferred to vials containing either water, 1 or 2 mM SR3677. Newly eclosed Canton(S) male flies were placed into fresh vials and referenced as a control for these experiments and flies were raised at non-permissive 29° C. for these experiments. […]

[3] = system: HeLa cells stably expressing GFP parkin and mito-DsRed; assay: Mitochondrial clearance assay; format: cell-based
Protocol: HeLa cells stably expressing GFP parkin and mito-DsRed were seeded into 12-well plates containing coverslips and allowed to adhere overnight. Cells were then treated with DMSO or 0.5 μM SR3677 for 2 hours prior to addition of 10 μM CCCP for 24 hours. Cells were then washed with PBS, fixed with 4% PFA and washed with PBS again prior to the mounting of coverslips onto glass slides. Mitochondrial clearance was quantified by counting the number of cells in each treatment to retain mito-DsRed signal. 3 independent trials were performed with at least 50 cells quantified per trial.

CN(C)CCOc1cc(-c2cn[nH]c2)ccc1NC(=O)[C@@H]1COc2ccccc2O1 [SR3677]
survival of flies, compound alone (Canton(S) flies; 1 mM SR3677 in food): does not affect survival of flies
survival of flies challenged with paraquat (Canton(S) flies; 1 mM SR3677 with 10 mM paraquat in food): significantly improved viability of flies
bioavailability [1]: poor bioavailability
percentage of red-only mitochondrial signal over the total mitochondrial signal (TH-GAL4>UAS-mitoQC flies): greater than flies whose food was supplemented with water
crystal violet staining (OD) (SH-SY5Y cells): increased crystal violet
mitochondrial distribution of HK2 following mitochondrial damage (HeLa cells): increases the mitochondrial distribution of HK2
survival ([2]; 1 mM and 2 mM in fly food, 29° C.): equally improved
climbing ability ([2]; 2 mM in fly food, 7 days): improved
mitochondrial mass without CCCP ([3]; 0.5 μM SR3677, 24 hour DMSO treatment): retained mitochondrial mass
% of cells that retained mito-DsRed ([3]; pre-treated with 0.5 μM SR3677, 24 hour 10 μM CCCP): 28±8.21%
